Measured values reported in BindingDB's records for doi:10.1021/acs.jnatprod.6b00597 (Chang Gung Memorial Hospital, 2016).
pIC50: −log10 of the molar value.

Assays:
[1] = Inhibition of human ABCB1 expressed in NCI-ADR-RES cells assessed as potentiation of vincristine-induced cytotoxicity by measuring vincristine IC50 at 1000 nM after 72 hrs by MTT assay (Rvb = 3714.80 +/- 383.58 nM)
[2] = Inhibition of human ABCB1 expressed in NCI-ADR-RES cells assessed as potentiation of doxorubicin-induced cytotoxicity by measuring doxorubicin IC50 at 1000 nM after 72 hrs by MTT assay (Rvb = 5.54 +/- 0.60 uM)
[3] = Inhibition of human ABCB1 expressed in KBV1 cells assessed as potentiation of vincristine-induced cytotoxicity by measuring vincristine IC50 at 1000 nM after 72 hrs by MTT assay (Rvb = 277.68 +/- 56.61 nM)
[4] = Inhibition of human ABCB1 expressed in KBV1 cells assessed as potentiation of doxorubicin-induced cytotoxicity by measuring doxorubicin IC50 at 1000 nM after 72 hrs by MTT assay (Rvb = 5.07 +/- 0.19 uM)
[5] = Inhibition of human ABCB1 expressed in NCI-ADR-RES cells assessed as potentiation of colchicine-induced cytotoxicity by measuring colchicine IC50 at 1000 nM after 72 hrs by MTT assay (Rvb = 1607.50 +/- 497.42 nM)
[6] = Inhibition of human ABCB1 transfected in HEK293 cells assessed as potentiation of doxorubicin-induced cytotoxicity by measuring doxorubicin IC50 at 1000 nM after 72 hrs by CCK8 assay (Rvb = 504.65 +/- 44.94 nM)
[7] = Inhibition of human ABCB1 transfected in HEK293 cells assessed as potentiation of doxorubicin-induced cytotoxicity by measuring doxorubicin IC50 at 100 nM after 72 hrs by CCK8 assay (Rvb = 504.65 +/- 44.94 nM)
[8] = Inhibition of human ABCB1 transfected in HEK293 cells assessed as potentiation of doxorubicin-induced cytotoxicity by measuring doxorubicin IC50 at 50 nM after 72 hrs by CCK8 assay (Rvb = 504.65 +/- 44.94 nM)
[9] = Inhibition of human ABCB1 expressed in NCI-ADR-RES cells assessed as potentiation of colchicine-induced cytotoxicity by measuring colchicine IC50 at 500 nM after 72 hrs by MTT assay (Rvb = 1607.50 +/- 497.42 nM)
[10] = Inhibition of human ABCB1 expressed in NCI-ADR-RES cells assessed as potentiation of colchicine-induced cytotoxicity by measuring colchicine IC50 at 100 nM after 72 hrs by MTT assay (Rvb = 1607.50 +/- 497.42 nM)
[11] = Inhibition of human ABCB1 expressed in NCI-ADR-RES cells assessed as potentiation of colchicine-induced cytotoxicity by measuring colchicine IC50 at 200 nM after 72 hrs by MTT assay (Rvb = 1607.50 +/- 497.42 nM)
[12] = Inhibition of human ABCB1 expressed in NCI-ADR-RES cells assessed as potentiation of colchicine-induced cytotoxicity by measuring colchicine IC50 at 50 nM after 72 hrs by MTT assay (Rvb = 1607.50 +/- 497.42 nM)
[13] = Inhibition of human ABCB1 expressed in NCI-ADR-RES cells assessed as potentiation of vincristine-induced cytotoxicity by measuring vincristine IC50 at 500 nM after 72 hrs by MTT assay (Rvb = 3714.80 +/- 383.58 nM)
[14] = Inhibition of human ABCB1 expressed in NCI-ADR-RES cells assessed as potentiation of doxorubicin-induced cytotoxicity by measuring doxorubicin IC50 at 100 nM after 72 hrs by MTT assay (Rvb = 5.54 +/- 0.60 uM)
[15] = Inhibition of human ABCB1 expressed in KBV1 cells assessed as potentiation of vincristine-induced cytotoxicity by measuring vincristine IC50 at 100 nM after 72 hrs by MTT assay (Rvb = 277.68 +/- 56.61 nM)
[16] = Inhibition of human ABCB1 expressed in NCI-ADR-RES cells assessed as potentiation of doxorubicin-induced cytotoxicity by measuring doxorubicin IC50 at 500 nM after 72 hrs by MTT assay (Rvb = 5.54 +/- 0.60 uM)
[17] = Inhibition of human ABCB1 expressed in KBV1 cells assessed as potentiation of colchicine-induced cytotoxicity by measuring colchicine IC50 at 200 nM after 72 hrs by MTT assay (Rvb = 487.57 +/- 30.54 nM)
[18] = Inhibition of human ABCB1 expressed in KBV1 cells assessed as potentiation of doxorubicin-induced cytotoxicity by measuring doxorubicin IC50 at 50 nM after 72 hrs by MTT assay (Rvb = 5.07 +/- 0.19 uM)
[19] = Inhibition of human ABCB1 expressed in NCI-ADR-RES cells assessed as potentiation of vincristine-induced cytotoxicity by measuring vincristine IC50 at 100 nM after 72 hrs by MTT assay (Rvb = 3714.80 +/- 383.58 nM)
[20] = Inhibition of human ABCB1 expressed in KBV1 cells assessed as potentiation of doxorubicin-induced cytotoxicity by measuring doxorubicin IC50 at 500 nM after 72 hrs by MTT assay (Rvb = 5.07 +/- 0.19 uM)
[21] = Inhibition of human ABCC1 transfected in HEK293 cells assessed as potentiation of etoposide-induced cytotoxicity by measuring etoposide IC50 at 500 nM after 72 hrs by CCK8 assay (Rvb = 38.54 +/- 5.62 nM)
[22] = Inhibition of human ABCB1 transfected in HEK293 cells assessed as potentiation of doxorubicin-induced cytotoxicity by measuring doxorubicin IC50 at 200 nM after 72 hrs by CCK8 assay (Rvb = 504.65 +/- 44.94 nM)
[23] = Inhibition of human ABCB1 expressed in KBV1 cells assessed as potentiation of doxorubicin-induced cytotoxicity by measuring doxorubicin IC50 at 100 nM after 72 hrs by MTT assay (Rvb = 5.07 +/- 0.19 uM)
[24] = Inhibition of human ABCB1 expressed in KBV1 cells assessed as potentiation of colchicine-induced cytotoxicity by measuring colchicine IC50 at 500 nM after 72 hrs by MTT assay (Rvb = 487.57 +/- 30.54 nM)
[25] = Inhibition of human ABCB1 expressed in KBV1 cells assessed as potentiation of colchicine-induced cytotoxicity by measuring colchicine IC50 at 100 nM after 72 hrs by MTT assay (Rvb = 487.57 +/- 30.54 nM)
[26] = Inhibition of human ABCB1 expressed in KBV1 cells assessed as potentiation of vincristine-induced cytotoxicity by measuring vincristine IC50 at 200 nM after 72 hrs by MTT assay (Rvb = 277.68 +/- 56.61 nM)
[27] = Inhibition of human ABCB1 expressed in NCI-ADR-RES cells assessed as potentiation of vincristine-induced cytotoxicity by measuring vincristine IC50 at 200 nM after 72 hrs by MTT assay (Rvb = 3714.80 +/- 383.58 nM)
[28] = Inhibition of human ABCB1 expressed in NCI-ADR-RES cells assessed as potentiation of doxorubicin-induced cytotoxicity by measuring doxorubicin IC50 at 50 nM after 72 hrs by MTT assay (Rvb = 5.54 +/- 0.60 uM)
[29] = Inhibition of human ABCB1 expressed in KBV1 cells assessed as potentiation of vincristine-induced cytotoxicity by measuring vincristine IC50 at 500 nM after 72 hrs by MTT assay (Rvb = 277.68 +/- 56.61 nM)
[30] = Inhibition of human ABCB1 expressed in NCI-ADR-RES cells assessed as potentiation of vincristine-induced cytotoxicity by measuring vincristine IC50 at 50 nM after 72 hrs by MTT assay (Rvb = 3714.80 +/- 383.58 nM)
[31] = Inhibition of human ABCB1 expressed in KBV1 cells assessed as potentiation of doxorubicin-induced cytotoxicity by measuring doxorubicin IC50 at 200 nM after 72 hrs by MTT assay (Rvb = 5.07 +/- 0.19 uM)
[32] = Inhibition of human ABCB1 expressed in NCI-ADR-RES cells assessed as potentiation of doxorubicin-induced cytotoxicity by measuring doxorubicin IC50 at 200 nM after 72 hrs by MTT assay (Rvb = 5.54 +/- 0.60 uM)
[33] = Inhibition of human ABCB1 expressed in KBV1 cells assessed as potentiation of vincristine-induced cytotoxicity by measuring vincristine IC50 at 50 nM after 72 hrs by MTT assay (Rvb = 277.68 +/- 56.61 nM)

With COc1cc2c(cc1OC)CN(CCc1ccc(NC(=O)c3cc(OC)c(OC)cc3NC(=O)c3cnc4ccccc4c3)cc1)CC2 the pIC50 [1] was 7.72, the pIC50 [2] was 6.62 and the pIC50 [3] was 9.18. The pIC50 [4] was 7.15, the pIC50 [5] was 7.60 and the pIC50 [6] was 7.60.
Molecule COc1ccc2cc1Oc1ccc(cc1)C[C@H]1c3cc(c(OC)cc3CCN1C)Oc1c(OC)c(OC)c(OC)c3c1[C@H](C2)N(C)CC3 [CHEBI:5677] has a pIC50 [7] of 7.12, a pIC50 [8] of 6.96 and a pIC50 [9] of 7.10. It also gave a pIC50 [10] of 6.24, a pIC50 [11] of 6.65 and a pIC50 [12] of 6.00. It also gave a pIC50 [13] of 6.94, a pIC50 [14] of 5.88 and a pIC50 [15] of 7.00. For the same molecule, the pIC50 [16] was 6.64, the pIC50 [17] was 6.93 and the pIC50 [18] was 5.85. It also gave a pIC50 [19] of 5.57, a pIC50 [20] of 7.00 and a pIC50 [21] of 4.42. It also gave a pIC50 [22] of 7.36, a pIC50 [23] of 6.15 and a pIC50 [24] of 7.49. For the same molecule, the pIC50 [25] was 6.73, the pIC50 [26] was 7.68 and the pIC50 [27] was 6.01. The pIC50 [28] was 5.55, the pIC50 [29] was 8.80 and the pIC50 [30] was 5.49. It also gave a pIC50 [31] of 6.55, a pIC50 [32] of 6.26 and a pIC50 [33] of 6.69.
